From patent publication US9365556B2, “3,5-diaminopyrazole kinase inhibitors” (Axikin Pharmaceuticals, Inc., priority 2012, dated 2016)

How the values were obtained:
[1] = target: T1, kinase domain protein of RC kinase (Homo sapiens, UniProt Q56UN5); assay: Enzymatic assay for kinase inhibitory activity (Crebtide substrate, LANCE read-out); assay type: biochemical; settings: compound at 1 μM
T1 sequence (Q56UN5 1061-1324 limits assumed): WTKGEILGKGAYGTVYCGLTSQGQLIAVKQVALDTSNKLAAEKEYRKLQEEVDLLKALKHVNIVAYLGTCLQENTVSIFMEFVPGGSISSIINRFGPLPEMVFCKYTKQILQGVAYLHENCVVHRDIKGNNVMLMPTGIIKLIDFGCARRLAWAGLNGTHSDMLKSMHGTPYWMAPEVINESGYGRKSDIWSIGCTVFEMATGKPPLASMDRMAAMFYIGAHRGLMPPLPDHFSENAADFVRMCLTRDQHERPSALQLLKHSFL
Method: Solutions of a test compound, Crebtide (a substrate), a kinase, and ATP were prepared using 1×MAPK Buffer (50 mM HEPES, 1 mM EGTA, […], 10 mM MgCl2, 2 mM DTT, and 0.01% Tween 20).
To each well, the test compound (1 μL) was first added (in duplicate) to reach a final concentration of 1 μM or 1×IC50 of the compound. The kinase (5 μl) was then added to each well to reach a final concentration of […] for the kinase domain or […] for the full-length domain. Each plate included a positive and negative controls in duplicate wells. Crebtide (2.5 μL) was then added to each well in duplicate to reach a final concentration of 50 nM. If the full-length kinase was used, the plates were incubated for 45 min at room temperature before proceeding further. ATP (2.5 μL) was added to each well to reach a final concentration of 1 μM for the kinase domain and 3 μM for the full-length.
After the addition of ATP, the plates were incubated for 45 min at room temperature. During the incubation, an EDTA solution (40 mM) and anti-Crebtide ([…]) were prepared. Additionally, a detection buffer stock solution was diluted ten fold before use.
After the incubation, the anti-Crebtide (5 μL) and EDTA (5 μL) were added to each well to reach their final concentrations of […] and 10 mM, respectively. The plates were allowed to develop at room temperature for 45 min. The plates were then read at 665 nm and 615 nm using Perkin Elmer Lance machine.
The biological results of inhibition of the kinase domain protein of RC kinase are summarized in Tables 2 and 3, wherein A represents at least 50% inhibition of the RC kinase activity at 1 μM; B represents no greater than 50% but at least 20% inhibition of the RC kinase activity at 1 μM; C represents no greater than 20% but at least 5% inhibition of the RC kinase activity at 1 μM; and D represents no greater than 5% inhibition of the RC kinase activity at 1 μM.

SMILES | inhibition at 1 µM [1] | melting point | Activity (inhibition of the RC kinase activity) [1] | Activity (inhibition of the RC kinase activity) ([1]; 1 µM)
N#Cc1c(Nc2cccc(Cl)c2)n[nH]c1/N=C/c1c[nH]nc1-c1ccc(F)cc1 [Compound A1] | ≤ 5% | 127 to 132 °C |  | 
N#Cc1c(Nc2cccc(Cl)c2)n[nH]c1/N=C/c1ccc(Cl)cc1Cl [Compound A4] | ≤ 5% | 277 to 281 °C |  | 
N#Cc1c(Nc2cccc(Cl)c2)n[nH]c1N=Cc1ccc(O)c([N+](=O)[O-])c1 [Compound A5, 3-((3-chlorophenyl)amino)-5-((4-hydroxy-3-nitrobenzylidene)amino)-1H-pyrazole-4-carbonitrile] | 20 to 50% | 286 to 288 °C |  | 
N#Cc1c(Nc2ccccc2)n[nH]c1/N=C/c1ccc(Cl)cc1 [Compound A7] | 5 to 20% | 276 to 278 °C |  | 
N#Cc1c(Nc2ccccc2)n[nH]c1/N=C/c1cccc2ccccc12 [Compound A8] | 5 to 20% | 259 to 263 °C |  | 
N#Cc1c(Nc2ccccc2)n[nH]c1/N=C/c1ccccc1 [Compound A9] | 20 to 50% | 257 to 260 °C |  | 
N#Cc1c(Nc2ccccc2)n[nH]c1/N=C/c1ccc(O)c([N+](=O)[O-])c1 [Compound A10] | 5 to 20% | 284 to 286 °C |  | 
N#Cc1c(Nc2cccc(Cl)c2)n[nH]c1/N=C/c1ccccc1 [Compound A11] | 5 to 20% | 260 to 264 °C |  | 
N#Cc1c(Nc2cccc(Cl)c2)n[nH]c1/N=C/c1ccc(Cl)cc1 [Compound A12] | 20 to 50% | 283 to 286 °C |  | 
COc1ccc(/C=N/c2[nH]nc(Nc3cccc(Cl)c3)c2C#N)cc1 [Compound A13] | 5 to 20% | 263 to 266 °C |  | 
N#Cc1c(Nc2cccc(Cl)c2)n[nH]c1/N=C/c1ccc(C(F)(F)F)cc1 [Compound A15, 3-((3-chlorophenyl)amino)-5-((4-(trifluoromethyl)benzylidene)amino)-1H-pyrazole-4-carbonitrile] | 5 to 20% | 279 to 282 °C |  | 
N#Cc1c(Nc2ccccc2)n[nH]c1/N=C/c1ccc([N+](=O)[O-])cc1 [Compound A19] | 5 to 20% | 290 to 294 °C |  | 
N#Cc1c(Nc2cccc(Cl)c2)n[nH]c1/N=C/c1ccc(O)cc1 [Compound A20] | ≤ 5% | 242 to 245 °C |  | 
COc1cc(/C=N/c2[nH]nc(Nc3ccccc3)c2C#N)ccc1O [Compound A21, 5-((4-hydroxy-3-methoxybenzylidene)amino)-3-(phenylamino)-1H-pyrazole-4-carbonitrile] | 5 to 20% | 208 to 214 °C |  | 
N#Cc1c(Nc2ccccc2)n[nH]c1/N=C/c1ccc(O)cc1 [Compound A22] | ≤ 5% | 241 to 245 °C |  | 
COc1ccccc1/C=N/c1[nH]nc(Nc2cccc(Cl)c2)c1C#N [Compound A23] | 20 to 50% | 239 to 241 °C |  | 
COc1ccccc1/C=N/c1[nH]nc(Nc2ccccc2)c1C#N [Compound A26] | 5 to 20% | 202 to 206 °C |  | 
N#Cc1c(Nc2cccc(Cl)c2)n[nH]c1/N=C/c1cc(F)cc2c1OCOC2 [Compound A29, 3-((3-chlorophenyl)amino)-5-(((6-fluoro-4H-benzo[d][1,3]dioxin-8-yl)methylene)amino)-1H-pyrazole-4-carbonitrile] | 5 to 20% | 248 to 251 °C |  | 
N#Cc1c(Nc2ccccc2)n[nH]c1/N=C/c1cc(F)cc2c1OCOC2 [Compound A30] | 5 to 20% | 247 to 251 °C |  | 
N#Cc1c(Nc2ccc(Cl)cc2)n[nH]c1/N=C/c1ccc(O)cc1 [Compound A32] | 5 to 20% | 286 to 288 °C |  | 
COc1ccc(/C=N/c2[nH]nc(Nc3ccc(Cl)cc3)c2C#N)cc1 [Compound A33] | ≤ 5% | 290 to 291 °C |  | 
N#Cc1c(Nc2ccc(Cl)cc2)n[nH]c1/N=C/c1ccc(Cl)cc1 [Compound A35] | ≤ 5% | 296 to 300 °C |  | 
COc1ccccc1/C=N/c1[nH]nc(Nc2ccc(Cl)cc2)c1C#N [Compound A38] | ≤ 5% | 262 to 265 °C |  | 
N#Cc1c(Nc2ccc(Cl)cc2)n[nH]c1/N=C/c1cccc2ccccc12 [Compound A40] | ≤ 5% | 289 to 292 °C |  | 
NC(=O)c1c(Nc2ccccc2Cl)n[nH]c1/N=C/c1ccccc1 [Compound B115] |  |  | B (no greater than 50% but at least 20% inhibition of the RC kinase activity at 1 μM) | 
NC(=O)c1c(Nc2ccccc2Cl)n[nH]c1/N=C/c1cc(O)ccc1[N+](=O)[O-] [Compound B116] |  |  | C (no greater than 20% but at least 5% inhibition of the RC kinase activity at 1 μM) | 
NC(=O)c1c(Nc2cccc(Cl)c2)n[nH]c1/N=C/c1ccc(Oc2ncccn2)cc1 [Compound B123] |  |  |  | B (no greater than 50% but at least 20% inhibition of the RC kinase activity at 1 μM)

Second part, led by results:

inhibition at 1 µM [1] | melting point | SMILES | Activity (inhibition of the RC kinase activity) [1] | Activity (inhibition of the RC kinase activity) ([1]; 1 µM)
≤ 5% | 274 to 275 °C | COc1ccc(Nc2n[nH]c(/N=C/c3ccc(O)c([N+](=O)[O-])c3)c2C#N)cc1 [Compound A42] |  | 
≤ 5% | 246 to 250 °C | COc1ccc(/C=N/c2[nH]nc(Nc3ccc(OC)cc3)c2C#N)cc1 [Compound A43] |  | 
≤ 5% | 242 to 248 °C | COc1ccc(Nc2n[nH]c(/N=C/c3ccc([N+](=O)[O-])cc3)c2C#N)cc1 [Compound A46] |  | 
≤ 5% | 220 to 228 °C | N#Cc1c(NC2CC2)n[nH]c1/N=C/c1ccc(O)cc1 [Compound A48, 3-(cyclopropylamino)-5-((4-hydroxybenzylidene)amino)-1H-pyrazole-4-carbonitrile] |  | 
5 to 20% | 288 to 290 °C | CC(C)(C)c1ccc(Nc2n[nH]c(/N=C/c3ccc(Cl)cc3)c2C#N)cc1 [Compound A53] |  | 
5 to 20% | 193 to 197 °C | COc1ccc(Nc2n[nH]c(/N=C/c3ccc(O)cc3)c2C#N)cc1 [Compound A54] |  | 
5 to 20% | 210 to 220 °C | COc1cc(/C=N/c2[nH]nc(Nc3cccc(Cl)c3)c2C#N)ccc1OCc1cnc(Cl)s1 [Compound A60] |  | 
5 to 20% | 264 to 268 °C | N#Cc1c(Nc2cccc(Cl)c2)n[nH]c1/N=C/c1ccc(Oc2ccc(C(F)(F)F)cn2)cc1 [Compound A61] |  | 
5 to 20% | 194 to 202 °C | Cn1nc(CSc2ccccc2)c(/C=N/c2[nH]nc(Nc3cccc(Cl)c3)c2C#N)c1Cl [Compound A62] |  | 
5 to 20% | 65 to 72 °C | N#Cc1c(Nc2cccc(Cl)c2)n[nH]c1/N=C/C1CCCN1C(=O)OCc1ccccc1 (centres unmarked) [Compound A63] |  | 
20 to 50% | 217 to 225 °C | N#Cc1c(Nc2cccc(Cl)c2)n[nH]c1/N=C/c1cccn1S(=O)(=O)c1ccccc1 [Compound A64] |  | 
5 to 20% | 200 to 216 °C | N#Cc1c(Nc2cccc(Cl)c2)n[nH]c1/N=C/c1ccc(S(F)(F)(F)(F)F)cc1 [Compound A65, 3-((3-chlorophenyl)amino)-5-((4-(pentafluorolthio)benzylidene)amino)-1H-pyrazole-4-carbonitrile] |  | 
20 to 50% | 308 to 310 °C | N#Cc1c(Nc2cccc(Cl)c2)n[nH]c1/N=C/c1ccc(-n2cnc3ccccc32)cc1 [Compound A67] |  | 
5 to 20% | 343 to 347 °C | N#Cc1c(Nc2cccc(Cl)c2)n[nH]c1/N=C/c1c[nH]c2c(F)c(F)c(F)c(F)c12 [Compound A68] |  | 
≤ 5% | 189 to 197 °C | COc1ccc(C(F)(F)F)cc1/C=N/c1[nH]nc(Nc2cccc(Cl)c2)c1C#N [Compound A75] |  | 
5 to 20% | 234 to 239 °C | N#Cc1c(Nc2cccc(Cl)c2)n[nH]c1/N=C/c1cccc(Oc2ncccn2)c1 [Compound A76] |  | 
≤ 5% | 273 to 279 °C | N#Cc1c(Nc2cccc(Cl)c2)n[nH]c1/N=C/c1ccc(N2CCOCC2)nc1 [Compound A79] |  | 
≥ 50% |  | NC(=O)c1c(Nc2cccc(Cl)c2)n[nH]c1/N=C/c1cc[nH]c1 [Compound B111] |  | 
